Test results as given in US12070445B2, “System and assay for monitoring production/release of membrane-lytic toxins in bacteria and compounds for modulating same” (priority 2021, dated 2024).
“Also recorded” adds a separate entry of the source. Where a SMILES comes first, the peptide text is derived from it. Bridges are numbered along the chain shown (N, C = ends).

Columns and labels:
[1] = tested on: WT P. aeruginosa (PAO1-PGSC); assay: Microtiter plate (96-well) vesicle lysis assay with WT P. aeruginosa; format: cell-based
Procedure: (§1) Compound handling and preparation. OdDHL and BHL (Hodgkinson et al., 2011), S. aureus AIP and peptide derivatives 1-5 (Tal-Gan et al., 2013, Tal-Gan et al., 2016, Vasquez and Blackwell, 2019), and compounds 7-9 (Welsh and Blackwell, 2016a, Boursier et al., 2018, Manson et al., 2020) were synthesized using previously described methods. PQS and compound 6 were purchased from Millipore Sigma and AK Scientific respectively. Compounds were stored dry at −20° C. until needed and then dissolved in DMSO. DMSO stock solutions were prepared at concentrations that varied with compound potency and apparent solubility. Final in-well compound concentrations for 96-well vesicle lysis assays, unless noted otherwise, were: 10 μM for AIP, OdDHL, and PQS; 1 mM for BHL; 100 nM for 1-4; 10 μM for 5; 20 μM for 6; 100 μM for 7 and 8; and 200 μM for 9.
(§2) Production of phospholipid vesicles with encapsulated calcein. Large unilamellar vesicles (LUVs) were produced by adapting a freeze-thaw and vesicle extrusion procedure (Mayer et al., 1986). Briefly, stock solutions of phospholipids (DOPC, DPPC, DPPE, or cholesterol) in chloroform were mixed to the desired lipid compositions (70 mol % DOPC/30 mol % cholesterol for S. aureus vesicles or 68 mol % DPPC, 30 mol % cholesterol, 2 mol % DPPE for P. aeruginosa vesicles), and the chloroform was removed using an N2 stream or rotary evaporation followed by drying for at least one hour under vacuum. Self-quenching solutions of calcein were prepared by combining calcein and PBS or a specially prepared calcein buffer (1 mM EDTA, 10 mM Trisbase, and 100 mM NaCl; pH 8) to a calcein concentration of […]. The resulting solutions were titrated with 10 M aqueous NaOH until all calcein was dissolved and the solution reached pH 7.4 or pH 8 for PBS and the calcein buffer, respectively. The resulting calcein solutions were added to the dried phospholipid films (PBS for S. aureus formulations and the calcein buffer for the P. aeruginosa formulations) for a final lipid concentration of 5 mg/mL. The resulting lipid solutions were vortexed vigorously and briefly sonicated in a bath sonicator to form a turbid vesicle suspension. The vesicle suspensions were then freeze-thawed five times by alternately immersing them into an iPrOH/dry ice bath and a warm water bath (˜60° C.). Vesicles prepared for continuous time-course experiments were passed at least 5 times through a 100 nm polycarbonate filter using a Mini-prep extruder. Vesicles prepared for the high-throughput screen were passed through the filter 3 times. The resulting vesicles were then separated from external, unloaded calcein using a hand-packed Sephadex-G50 size exclusion chromatography column. The concentration of phospholipid in the solution was quantified using ^31P NMR (per the above protocol), and the phospholipid concentration was adjusted to 2 mM for unsaturated lipid solutions and 1 mM for saturated lipid solutions in their respective buffers. The resulting vesicles were characterized by dynamic light scattering and found to have a hydrodynamic diameter of ˜150 nm (FIGS. 3A-3C), which agrees with previous reports describing vesicle production using a similar method (Lapinski et al., 2007).
Microtiter plate vesicle lysis assays. Portions of media (2 or 10 mL) were inoculated with individual bacterial colonies and allowed to shake overnight. […]

P. aeruginosa = P. aeruginosa growth (OD600); format: cell-based; details: P. aeruginosa WT and QS mutant with vesicles, 12 hr
Procedure: (§3) Microtiter plate vesicle lysis assays. Portions of media (2 or 10 mL) were inoculated with individual bacterial colonies and allowed to shake overnight. From these overnight cultures, subcultures were prepared by diluting the cultures 1:50 (v/v) in fresh BHI for S. aureus or 1:100 (v/v) in fresh LB for P. aeruginosa. An aliquot of each subculture (178 μL) was added to 20 μL of vesicle suspension and 2 μL of compound solution (dissolved in DMSO at 100× working concentration) in a clear-bottomed, black 96-well microtiter plate (Corning 3904). For controls, DMSO (vehicle) or Triton X-100 (1% final concentration) was substituted for compound. Plate covers were coated with an aqueous solution of 0.05% Triton X-100 and 20% ethanol (Brewster, 2003) to prevent the accumulation of condensation. Plates were incubated in a Biotek Synergy 2 microplate reader running Gen5 1.05 software at 37° C. with shaking at the high-speed setting. Fluorescence (excitation 500 nm, emission 540 nm) and OD600 (absorbance at 600 nm) measurements were recorded every 15 minutes for 12 hours. All experiments were performed in technical triplicate in a single microtiter plate. Biological triplicates were then obtained over three days. GraphPad Prism software (v. 9) was used to generate curves and calculate standard error.

WT S. aureus (RN6390b) = assay: Microtiter plate (96-well) vesicle lysis assay with WT S. aureus; format: cell-based
Procedure: as §1, §2
Microtiter plate vesicle lysis assays. Portions of media (2 or 10 mL) were inoculated with individual bacterial colonies and allowed to shake overnight. From these overnight cultures, subcultures were prepared by diluting the cultures 1:50 (v/v) in fresh BHI for S. aureus or 1:100 (v/v) in fresh LB for P. aeruginosa. An aliquot of each subculture (178 μL) was added to 20 μL of vesicle suspension and 2 μL of compound solution (dissolved in DMSO at 100× working concentration) in a clear-bottomed, black 96-well microtiter plate (Corning 3904). For controls, DMSO (vehicle) or Triton X-100 (1% final concentration) was substituted for compound. […]

S. aureus = S. aureus growth (OD600); format: cell-based
Procedure: as §3
High-throughput screening and follow-up analysis protocols. Test compounds and positive control 1 were delivered in 2.5 nL aliquots of DMSO with an Echo 550 liquid handler (LabCyte Inc.) into black 384-well microtiter plates (Corning). All test compounds were tested at 10 μM; positive control 1 was tested at 250 nM. DMSO was used as a negative control. Overnight cultures (2 mL) of WT S. aureus (RN6390b) were grown at 37° C. with shaking at 200 rpm. These cultures were diluted 1:500 (v/v) in fresh BHI medium, at which point vesicle solutions were added to a final concentration of 1 mM phospholipid (as determined by ^31P NMR analyses). This vesicle-cell mixture was then added to the 384-well microtiter plates with a Multidrop 384 liquid-dispensing robot (Thermo Scientific) for a total volume of 50 μL per well. Plates were incubated statically for ˜24 hr at 37° C., at which point fluorescence (excitation 483, emission 530) and OD600 (absorbance at 600 nm) measurements were made using a CLARIOstarR Plus microtiter plate reader (BMG Labtech) running MARS data analysis software. Scatter plots were generated using the Collaborative Drug Discovery Vault informatics platform. […] Fluorescence (excitation 510, emission 544) and OD600 measurements were acquired with a PerkinElmer EnVision microtiter plate reader running Envision Manager software. […]

agr = agr YFP transcriptional reporter assay (S. aureus AH1677 with pDB59); format: cell-based
Procedure: Bacterial strains and culture. All bacteria were grown at 37° C. with 200 rpm shaking unless otherwise specified. S. aureus and P. aeruginosa were grown in BHI medium and LB medium, respectively. S. aureus AH1677 (with an agr-YFP reporter plasmid) and P. aeruginosa PAO1-PGSC (with a plasI-LVAgfp reporter plasmid) were used as QS transcriptional reporters and grown with 10 μg/mL chloramphenicol and 300 μg/mL carbenicillin, respectively. All other strains were grown without supplemental antibiotic. S. aureus RN6390b and P. aeruginosa PAO1-PGSC were used as WT strains in vesicle lysis experiments, while S. aureus RN9222 and P. aeruginosa PAO-JG35 were used as QS mutants. RN9222 was grown without antibiotic as it was not used as a reporter strain (i.e., it served only as QS mutant).
High-throughput screening and follow-up analysis protocols. Test compounds and positive control 1 were delivered in 2.5 nL aliquots of DMSO with an Echo 550 liquid handler (LabCyte Inc.) into black 384-well microtiter plates (Corning). All test compounds were tested at 10 μM; positive control 1 was tested at 250 nM. DMSO was used as a negative control. Overnight cultures (2 mL) of WT S. aureus (RN6390b) were grown at 37° C. with shaking at 200 rpm. These cultures were diluted 1:500 (v/v) in fresh BHI medium, at which point vesicle solutions were added to a final concentration of 1 mM phospholipid (as determined by ^31P NMR analyses). This vesicle-cell mixture was then added to the 384-well microtiter plates with a Multidrop 384 liquid-dispensing robot (Thermo Scientific) for a total volume of 50 μL per well. Plates were incubated statically for ˜24 hr at 37° C., at which point fluorescence (excitation 483, emission 530) and OD600 (absorbance at 600 nm) measurements were made using a CLARIOstarR Plus microtiter plate reader (BMG Labtech) running MARS data analysis software. Scatter plots were generated using the Collaborative Drug Discovery Vault informatics platform. The dose-response experiment using the vesicle lysis assay was performed in a 384-well plate in technical duplicate with compound concentrations of 0.1, 0.25, 0.5, 1, 2.5, 5, 10, and 20 μM. Dose-response curves were generated using variable slope (4 parameter) non-linear regression analysis for compound inhibition using GraphPad Prism software (v. 9). Analysis of the QS modulatory activity of the HTS hits and 6 (savirin) was performed using the S. aureus YFP transcriptional reporter strain. HTS hits were purchased directly from Life Chemicals, Inc. DMSO stock solutions (10 mM) of each compound were prepared and stored at −20° C. Serial dilutions (1:3) were prepared from the stock solutions in DMSO, and 2 μL aliquots of the resulting dilutions were added to the wells of black 96-well microtiter plates (Corning). Overnight cultures of the S. aureus reporter strain (2 mL) were grown at 37° C. with shaking at 200 rpm. Cultures were diluted 1:50 (v/v) into fresh BHI medium, and 198 μL of this diluted culture were added to each well containing compound, for a total volume of 200 μL per well. All plates contained a vehicle control consisting of 2 μL of DMSO and 198 μL of culture and a media control consisting of 200 μL BHI. Plates were incubated for ˜24 hours at 37° C. with shaking at 200 rpm. Fluorescence (excitation 510, emission 544) and OD600 measurements were acquired with a PerkinElmer EnVision microtiter plate reader running Envision Manager software. Background fluorescence from BHI control was subtracted from raw fluorescence reads, OD600 corrected, and finally normalized to vehicle control. Dose-response curves and IC50 values were generated using 3-parameter non-linear regression analysis for compound inhibition using GraphPad Prism software (v. 9). All compounds were tested in technical triplicate with at least 3 biological replicates.

[2] = Solubility in DMSO and aqueous solutions

In the case of CCCCCCCCCC(=O)CC(=O)Nc1ccccc1 [Compound 7, V-06-018], the “delay of vesicle lysis relative to vehicle controls” value ([1]; 100 μM 7 and 8) is reported as “approximately two”, the “delay of the onset of vesicle lysis” value ([1]; 100 μM 7 and 8, FIG. 7C) is reported as “approximately 2 hr” and the “effect on bacterial growth” value (P. aeruginosa) is reported as “inhibit growth mildly at later time points”.
For CC[C@H](C)[C@H](N)C(=O)N[C@@H](CC(N)=O)C(=O)N[C@H]1CSC(=O)[C@H](CC(C)C)NC(=O)[C@H](CC(C)C)NC(=O)[C@H](Cc2ccccc2)NC(=O)[C@H](C)NC1=O [Compound 1, AIP III D4A] (H-INCAFLL; thioester 3-C), the “effect on vesicle lysis (calcein fluorescence over 12 hr)” value (WT S. aureus (RN6390b); 100 nM 1, 10 μM 5, 20 μM 6, 10 μM AIP) was “wholly abrogated vesicle lysis; also recorded: repress vesicle lysis”, the “effect of increasing concentration on onset of calcein leakage” value (WT S. aureus (RN6390b); 3-fold dilutions starting at 100 nM) was “increases in the times required for the onset of calcein leakage” and the “calcein leakage with agr inhibitors at equivalent concentration” value (WT S. aureus (RN6390b); all compounds at 100 nM, 12 hr) was “completely prevent calcein leakage”. The “impact on cell growth” value (S. aureus; S. aureus WT and QS mutant with vesicles, 12 hr) was “minimal impact on cell growth”.
In the case of O=C(Nc1nc2c(s1)CN(C(=O)Nc1cccc(Cl)c1)CC2)c1ccsc1 [Compound 11, N-(3-chlorophenyl)-2-(thiophene-3-carboxamido)-6,7-dihydrothiazolo[5,4-c]pyridine-5(4H)-carboxamide], the “agr inhibition in agr transcriptional reporter assay” value (agr; S. aureus agr YFP reporter) is reported as “near maximal agr inhibitors”, the IC50 (agr; Staphylococcus aureus, 24 h, read-out: IC50 in the agr reporter assay) is reported as 0.7 µM and the “inhibition of cellular growth” value (S. aureus; S. aureus, HTS hits) is reported as “do not inhibit cellular growth”. The “solubility in DMSO and aqueous solutions” value [2] was “readily soluble”.
